According to publication PMC4608580, “Synthesis and Evaluation of Biological Activity of Antimicrobial – Pro-Proliferative Peptide Conjugates” (PLoS ONE, 2015):

Columns and labels:
Proteus mirabilis = assay: MIC, broth microdilution; assay type: cell-based; conditions: Mueller-Hinton broth, approximately 10^5 CFU/mL, 37°C, 24 h, absorbance 590 nm, at least triplicate
Method: Luria-Bertani broth (LB) and Sabouraud Dextrose broth (SB) (Biocorp, Poland) were used for cultivation of bacteria and fungi strains, respectively. Antimicrobial activity of peptides was analyzed through determination of MIC (minimal inhibitory concentration) parameter according to the standard microdilution technique performed on 96-well plates. Mueller-Hinton broth (MHB) was used as the working medium for all bacterial strains, while in case of fungi it was additionally supplemented with 2% glucose.
Briefly, inoculum was prepared from freshly grown cultures of microorganisms being at their exponential phase of growth. […] Then plates were incubated overnight at 37°C and absorbance was read at 590 nm after 24 h. […]
All peptides were screened against the wide range of microorganisms, including Gram-negative, Gram-positive bacteria and fungi from Candida species (Table 2). […] All assays were performed on liquid Mueller-Hinton broth, which was additionally supplemented with 2% glucose when fungicidal activity towards Candida spps. was analyzed.

[1] = test system: human primary dermal fibroblasts; assay: Cell migration assay (in vitro scratch test); assay type: cell-based; conditions: 25 μg/mL, 24 h
Method: Biopsies of healthy human skin were obtained aseptically from three donors (47–69 years old) undergoing circumcision after obtaining their written informed consent. All the procedures were approved by the Ethics Committee of Medical University of Gdansk (NKEBN/483/2011. Issued: 2011-12-19). The samples were washed several times with sterile PBS (Sigma-Aldrich, Germany) containing antibiotic (200 U/mL penicillin and 200 μg/mL streptomycin), after which, the subcutaneous tissue was cut off with a sharp blade. The resulting sheets were cut into small fragments, washed two times with sterile PBS and treated with 6 U/mL dispase II (BD, USA) overnight at 4°C to separate epidermis and dermis. The dermis was then digested with 1.0 mg/mL collagenase type I (from Clostridium histolyticum Sigma-Aldrich, Germany) for 2 hours at 37°C to isolate fibroblasts. Cells were used between the 2nd and 4th passage in all experiments.
Fibroblasts and keratinocytes were seeded (5x10^5 cells/well) in 6-well plates. When desired monolayer confluence was reached, cells were starved for 24 hours in serum-free DMEM. The monolayer was scratched then with 200μL-pipette tip. […] The wounded areas were then photographed by means of Zeiss Observer D1 microscope equipped with camera AxioCam and analyzed with AxioVision software (Carl Zeiss, Germany). Migration activity of the cells treated with the tested peptides were expressed as the percentage of the wounded area with respect to the control probe (cell cultures without any of the peptide), assumed as 100%.
An in vitro scratch test was performed to investigate the effect of the analyzed compounds on keratinocytes and fibroblasts migration. […]
Fig 2 Effect of the peptides on HaCaT keratinocytes and fibroblasts cell migration in the in vitro scratch test. […] Migration was analyzed after 24 hours by means of Zeiss Observer D1 microscope, wounding areas were analyzed with AxioVision software and expressed as the percentage of the wound width in comparison to the control sample (cells incubated in DMEM without FCS). […]

HaCaT keratinocytes = assay: Cell migration assay (in vitro scratch test); assay type: cell-based, human; conditions: 25 μg/mL, 24 h, serum-free DMEM, Mitomycin C 5 μg/mL, vs. control without peptide, three independent experiments
Method: Fibroblasts and keratinocytes were seeded (5x10^5 cells/well) in 6-well plates. When desired monolayer confluence was reached, cells were starved for 24 hours in serum-free DMEM. The monolayer was scratched then with 200μL-pipette tip. The floating cells and cell debris were removed by double washing in PBS, further replaced with a fresh serum-free medium. Wounded monolayers were incubated for the next 24 h in the presence of tested peptides used at concentration of 25 μg/mL and 5 μg/mL of Mitomycin C (Sigma Aldrich) to prevent proliferation. At the end of the experiment medium was removed and the cells were fixed with 3.7% PFA for 5 min, stained for the next 30 min with 0.05% crystal violet solution, washed several times with distilled water and the plates were left inverted for a couple of minutes to drain. The wounded areas were then photographed by means of Zeiss Observer D1 microscope equipped with camera AxioCam and analyzed with AxioVision software (Carl Zeiss, Germany). Migration activity of the cells treated with the tested peptides were expressed as the percentage of the wounded area with respect to the control probe (cell cultures without any of the peptide), assumed as 100%.
An in vitro scratch test was performed to investigate the effect of the analyzed compounds on keratinocytes and fibroblasts migration. Evaluation was based on the efficiency of the invasion of the monolayer cells to the prewounded area within 24 h after stimulation with the appropriate compound added at concetration of 25μg/mL.
Fig 2 Effect of the peptides on HaCaT keratinocytes and fibroblasts cell migration in the in vitro scratch test. HaCaT cells and fibroblasts were grown in 6-well plates until the 100% confluence was reached, then cells were starved for the next 12 hours in DMEM without 10% FCS and scratched once vertically with a 200μL pipette tip. After being washed two times with sterile PBS, a fresh portion of DMEM medium was added and cells were treated with the tested peptides applied at their optimal doses (25 μg/mL). Migration was analyzed after 24 hours by means of Zeiss Observer D1 microscope, wounding areas were analyzed with AxioVision software and expressed as the percentage of the wound width in comparison to the control sample (cells incubated in DMEM without FCS). Control+ FCS corresponds to the sample with cells incubated in the medium containing 10% FCS and was treated as the additional positive control. Data represent the mean ± SD of three independent experiments. *P < 0.05, **P < 0.01, ***P < 0.001 vs. control.

| Substance | MIC P.mirabilis (Proteus mirabilis) | Inhibitory effect on fibroblast migration in comparison to the control ([1]; scratch test) [%] | Effect on keratinocyte migration (scratch test), in words (HaCaT keratinocytes) | Effect on fibroblast migration (scratch test), in words ([1]; serum-free DMEM, Mitomycin C 5 μg/mL, vs. control without peptide, three independent experiments) |
| --- | --- | --- | --- | --- |
| IKKILSKIKKLL-NH2 [DK5, Lys-rich derivative of amphibian AMP temporin-1CEb, …-NH2, reference compound] | NI ^a) | ~50 | – | – |
| YAGFLR-PEG-IKKILSKIKKLL-NH2 [DAL-PEG-DK5, conjugate of dalargin and DK5 joined by PEG-linker] | – | – | neutral or slightly stimulative | neutral or slightly stimulative |
